Patent US8846644B2, “Phosphate-containing nanoparticle delivery vehicle” (priority 2009, dated 2014)

Experiment: Hydrophilicity test (dispersion)
Format: physicochemical

dispersion (hydrophilicity): 0.4 µg/mL
Structure (SMILES): CC(=O)O[C@H]1C(=O)[C@@]2(C)[C@H]([C@H](OC(=O)c3ccccc3)[C@]3(O)C[C@H](OC(=O)[C@H](O)[C@@H](NC(=O)c4ccccc4)c4ccccc4)C(C)=C1C3(C)C)[C@]1(OC(C)=O)CO[C@@H]1C[C@@H]2O [paclitaxel]
